The text below walks through data of patent US11452717B2, “Small molecule activators of nicotinamide phosphoribosyltransferase (NAMPT) and uses thereof” (Sanford Burnham Prebys Medical Discovery Institute, priority 2017, dated 2022).

This assay has as its target NAMPT enzyme (Homo sapiens (Human), UniProt P43490). Kind of assay: Enzyme Assay and NMN Detection (NAMPT reaction, fluorescence detection of NMN). It counts as biochemical. Conditions: NAMPT activation, NMN formation. The procedure, abridged:
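Reaction in 50 mM HEPES pH 7.5, 5 mM MgCl2, 0.1% Prionex, 0.005% Tween 20, 1 mM TCEP at room temperature, with 16 nM NAMPT, 120 uM ATP, 5 uM nicotinamide, 6.25 uM PRPP, 0.04 U/ml pyrophosphatase for 2 h. Stopped with acetophenone/KOH then formic acid; NMN quantified by fluorescence (ex380/em460) against calibration curve.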

Sequence of NAMPT enzyme (P43490 whole entry, species assumed): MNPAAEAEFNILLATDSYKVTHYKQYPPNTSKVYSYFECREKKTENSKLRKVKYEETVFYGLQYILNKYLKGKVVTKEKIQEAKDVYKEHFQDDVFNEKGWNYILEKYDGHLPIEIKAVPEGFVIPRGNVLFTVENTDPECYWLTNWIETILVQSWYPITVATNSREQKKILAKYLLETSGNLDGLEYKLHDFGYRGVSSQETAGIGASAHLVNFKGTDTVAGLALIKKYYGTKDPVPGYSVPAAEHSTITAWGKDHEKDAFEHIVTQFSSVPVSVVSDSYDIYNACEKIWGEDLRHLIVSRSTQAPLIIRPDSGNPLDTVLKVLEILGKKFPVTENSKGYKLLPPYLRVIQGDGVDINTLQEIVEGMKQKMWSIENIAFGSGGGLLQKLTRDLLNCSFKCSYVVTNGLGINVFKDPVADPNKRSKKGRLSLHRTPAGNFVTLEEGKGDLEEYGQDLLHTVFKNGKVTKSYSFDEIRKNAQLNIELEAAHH

By EC50 is commonly meant the midpoint of the concentration-response curve. Under “Table B-4”, `Cc1ccc2c(-c3ccc(NC(=O)NCc4cn[nH]c4)cc3)nn(C)c2c1` [1-[4-(1,6-Dimethyl-1H-indazol-3-yl)-phenyl]-3-(1H-pyrazol-4-ylmethyl)-urea] returned an EC50 of 0.1 to 2 µM. In turn, `Cc1ccc2c(-c3ccc(NC(=O)NCc4cnco4)cc3)nn(C)c2c1` [1-[4-(1,6-Dimethyl-1H-indazol-3-yl)-phenyl]-3-oxazol-5-ylmethyl-urea] showed an EC50 (Table B-5) of 0.1 to 2 µM. `Cc1ccc2c(-c3ccc(NC(=O)NCc4ccncc4)cc3)nn(C)c2c1` [1-[4-(1,6-Dimethyl-1H-indazol-3-yl)-phenyl]-3-pyridin-4-ylmethyl-urea] showed an EC50 (Table B-6) of 0.1 to 2 µM. For `CC(C)CN1CCC(S(=O)(=O)c2ccc(NC(=O)NCc3cn[nH]c3)cc2)CC1` [1-[4-(1-Isobutyl-piperidine-4-sulfonyl)-phenyl]-3-(1H-pyrazol-4-ylmethyl)-urea], the EC50 (Table B-4) fell in the range of 2 to 5 µM. For the setting “Table B-6”, `CC(C)CN1CCC(S(=O)(=O)c2ccc(NC(=O)NCc3ccncc3)cc2)CC1` [1-[4-(1-Isobutyl-piperidine-4-sulfonyl)-phenyl]-3-pyridin-4-ylmethyl-urea] came in with an EC50 of 2 to 5 µM. For the setting “Table B-4”, `CC(C)n1cc(S(=O)(=O)c2ccc(NC(=O)NCc3cn[nH]c3)cc2)cn1` [1-[4-(1-Isopropyl-1H-pyrazole-4-sulfonyl)-phenyl]-3-(1H-pyrazol-4-ylmethyl)-urea] displayed an EC50 of under 0.1 µM. For `CC(C)n1cc(S(=O)(=O)c2ccc(NC(=O)NCc3cnco3)cc2)cn1` [1-[4-(1-Isopropyl-1H-pyrazole-4-sulfonyl)-phenyl]-3-oxazol-5-ylmethyl-urea], the EC50 (Table B-5) lay within 0.1 to 2 µM. Regarding `CC(C)n1cc(S(=O)(=O)c2ccc(NC(=O)NCc3ccncc3)cc2)cn1` [1-[4-(1-Isopropyl-1H-pyrazole-4-sulfonyl)-phenyl]-3-pyridin-4-ylmethyl-urea], the half-maximal effective concentration (EC50) (Table B-6) was under 0.1 µM. The compound `CC(C)N1CCC(S(=O)(=O)c2ccc(NC(=O)NCc3cn[nH]c3)cc2)CC1` [1-[4-(1-Isopropyl-piperidine-4-sulfonyl)-phenyl]-3-(1H-pyrazol-4-ylmethyl)-urea] registered an EC50 (Table B-4) of 2 to 5 µM. The compound `CC(C)N1CCC(S(=O)(=O)c2ccc(NC(=O)NCc3ccncc3)cc2)CC1` [1-[4-(1-Isopropyl-piperidine-4-sulfonyl)-phenyl]-3-pyridin-4-ylmethyl-urea] came in with an EC50 (Table B-6) of 0.1 to 2 µM. For `Cn1nc(-c2ccc(NC(=O)NCc3cn[nH]c3)cc2)c2ccccc21` [1-[4-(1-Methyl-1H-indazol-3-yl)-phenyl]-3-(1H-pyrazol-4-ylmethyl)-urea], the EC50 (Table B-4) fell in the range of 0.1 to 2 µM.

Regarding `Cn1nc(-c2ccc(NC(=O)NCc3cnco3)cc2)c2ccccc21` [1-[4-(1-Methyl-1H-indazol-3-yl)-phenyl]-3-oxazol-5-ylmethyl-urea], the half-maximal effective concentration (EC50) (Table B-5) lay within 2 to 5 µM. With `Cn1nc(-c2ccc(NC(=O)NCc3ccncc3)cc2)c2ccccc21` [1-[4-(1-Methyl-1H-indazol-3-yl)-phenyl]-3-pyridin-4-ylmethyl-urea], the EC50 (Table B-6) was 0.1 to 2 µM. Consider `Cn1cc(S(=O)(=O)c2ccc(NC(=O)NCc3cn[nH]c3)cc2)cn1` [1-[4-(1-Methyl-1H-pyrazole-4-sulfonyl)-phenyl]-3-(1H-pyrazol-4-ylmethyl)-urea], for which the EC50 (Table B-4) lay in the range of 0.1 to 2 µM. Compound `Cn1cc(S(=O)(=O)c2ccc(NC(=O)NCc3cnco3)cc2)cn1` [1-[4-(1-Methyl-1H-pyrazole-4-sulfonyl)-phenyl]-3-oxazol-5-ylmethyl-urea] had a concentration for a half-maximal effect (EC50) (Table B-5) of 2 to 5 µM. Under “Table B-6”, `Cn1cc(S(=O)(=O)c2ccc(NC(=O)NCc3ccncc3)cc2)cn1` [1-[4-(1-Methyl-1H-pyrazole-4-sulfonyl)-phenyl]-3-pyridin-4-ylmethyl-urea] gave an EC50 of 0.1 to 2 µM. Turning to `Cn1nc(-c2ccc(NC(=O)NCc3cn[nH]c3)cc2)c2cccnc21` [1-[4-(1-Methyl-1H-pyrazolo[3,4-b]pyridin-3-yl)-phenyl]-3-(1H-pyrazol-4-ylmethyl)-urea], the EC50 (Table B-4) was in the range of 0.1 to 2 µM. The compound `Cn1nc(-c2ccc(NC(=O)NCc3cnco3)cc2)c2cccnc21` [1-[4-(1-Methyl-1H-pyrazolo[3,4-b]pyridin-3-yl)-phenyl]-3-oxazol-5-ylmethyl-urea] had an EC50 (Table B-5) of 2 to 5 µM. In turn, `Cn1nc(-c2ccc(NC(=O)NCc3ccncc3)cc2)c2cccnc21` [1-[4-(1-Methyl-1H-pyrazolo[3,4-b]pyridin-3-yl)-phenyl]-3-pyridin-4-ylmethyl-urea] showed an EC50 (Table B-6) of 5 to 20 µM.

Take `Cn1nc(-c2ccc(NC(=O)NCc3cn[nH]c3)cc2)c2ncccc21` [1-[4-(1-Methyl-1H-pyrazolo[4,3-b]pyridin-3-yl)-phenyl]-3-(1H-pyrazol-4-ylmethyl)-urea]: the EC50 (Table B-4) lay within 0.1 to 2 µM.

On to `Cn1nc(-c2ccc(NC(=O)NCc3cnco3)cc2)c2ncccc21` [1-[4-(1-Methyl-1H-pyrazolo[4,3-b]pyridin-3-yl)-phenyl]-3-oxazol-5-ylmethyl-urea], for which the concentration giving a half-maximal response (EC50) (Table B-5) lay in the range of 2 to 5 µM. For the setting “Table B-6”, `Cn1nc(-c2ccc(NC(=O)NCc3ccncc3)cc2)c2ncccc21` [1-[4-(1-Methyl-1H-pyrazolo[4,3-b]pyridin-3-yl)-phenyl]-3-pyridin-4-ylmethyl-urea] showed an EC50 of 0.1 to 2 µM. On to `Cn1nc(-c2ccc(NC(=O)NCc3cn[nH]c3)cc2)c2cnccc21` [1-[4-(1-Methyl-1H-pyrazolo[4,3-c]pyridin-3-yl)-phenyl]-3-(1H-pyrazol-4-ylmethyl)-urea], for which the EC50 (Table B-4) is 2 to 5 µM. The compound `Cn1nc(-c2ccc(NC(=O)NCc3cnco3)cc2)c2cnccc21` [1-[4-(1-Methyl-1H-pyrazolo[4,3-c]pyridin-3-yl)-phenyl]-3-oxazol-5-ylmethyl-urea] registered an EC50 (Table B-5) of 5 to 20 µM. Regarding `Cn1nc(-c2ccc(NC(=O)NCc3ccncc3)cc2)c2cnccc21` [1-[4-(1-Methyl-1H-pyrazolo[4,3-c]pyridin-3-yl)-phenyl]-3-pyridin-4-ylmethyl-urea], the EC50 (Table B-6) was 5 to 20 µM.

Regarding `CN1CCC(S(=O)(=O)c2ccc(NC(=O)NCc3cn[nH]c3)cc2)CC1` [1-[4-(1-Methyl-piperidine-4-sulfonyl)-phenyl]-3-(1H-pyrazol-4-ylmethyl)-urea], the EC50 (Table B-4) lay in the range of 2 to 5 µM. `CN1CCC(S(=O)(=O)c2ccc(NC(=O)NCc3cnco3)cc2)CC1` [1-[4-(1-Methyl-piperidine-4-sulfonyl)-phenyl]-3-oxazol-5-ylmethyl-urea] yielded an EC50 (Table B-5) of 2 to 5 µM. `CN1CCC(S(=O)(=O)c2ccc(NC(=O)NCc3ccncc3)cc2)CC1` [1-[4-(1-Methyl-piperidine-4-sulfonyl)-phenyl]-3-pyridin-4-ylmethyl-urea] had an EC50 (Table B-6) of 2 to 5 µM. Compound `O=C(NCc1cn[nH]c1)Nc1ccc(-c2cccc3[nH]cnc23)cc1` [1-[4-(1H-Benzoimidazol-4-yl)-phenyl]-3-(1H-pyrazol-4-ylmethyl)-urea] showed an EC50 (Table B-4) of over 20 µM. In the case of `O=C(NCc1cnco1)Nc1ccc(-c2cccc3[nH]cnc23)cc1` [1-[4-(1H-Benzoimidazol-4-yl)-phenyl]-3-oxazol-5-ylmethyl-urea], where the note is “Table B-5”, the EC50 was over 20 µM. For the compound `O=C(NCc1ccncc1)Nc1ccc(-c2cccc3[nH]cnc23)cc1` [1-[4-(1H-Benzoimidazol-4-yl)-phenyl]-3-pyridin-4-ylmethyl-urea], the EC50 (Table B-6) was over 20 µM. `O=C(NCc1cn[nH]c1)Nc1ccc(-c2n[nH]c3ccccc23)cc1` [1-[4-(1H-Indazol-3-yl)-phenyl]-3-(1H-pyrazol-4-ylmethyl)-urea] yielded a concentration giving a half-maximal response (EC50) (Table B-4) of 0.1 to 2 µM.

In turn, `O=C(NCc1cnco1)Nc1ccc(-c2n[nH]c3ccccc23)cc1` [1-[4-(1H-Indazol-3-yl)-phenyl]-3-oxazol-5-ylmethyl-urea] yielded an EC50 (Table B-5) of 0.1 to 2 µM. On to `O=C(NCc1ccncc1)Nc1ccc(-c2n[nH]c3ccccc23)cc1` [1-[4-(1H-Indazol-3-yl)-phenyl]-3-pyridin-4-ylmethyl-urea], for which the EC50 (Table B-6) is 0.1 to 2 µM.

On to `O=C(NCc1cn[nH]c1)Nc1ccc(S(=O)(=O)c2ccc(Cl)cc2Cl)cc1` [1-[4-(2,4-Dichloro-benzenesulfonyl)-phenyl]-3-(1H-pyrazol-4-ylmethyl)-urea], for which, under “Table B-4”, the EC50 fell in the range of 0.1 to 2 µM. `O=C(NCc1ccncc1)Nc1ccc(S(=O)(=O)c2ccc(Cl)cc2Cl)cc1` [1-[4-(2,4-Dichloro-benzenesulfonyl)-phenyl]-3-pyridin-4-ylmethyl-urea]: where the note is “Table B-6”, the concentration for a half-maximal effect (EC50) was 0.1 to 2 µM. With `O=C(NCc1cn[nH]c1)Nc1ccc(S(=O)(=O)c2ccc(F)cc2F)cc1` [1-[4-(2,4-Difluoro-benzenesulfonyl)-phenyl]-3-(1H-pyrazol-4-ylmethyl)-urea], the EC50 (Table B-4) is under 0.1 µM. Take `O=C(NCc1cnco1)Nc1ccc(S(=O)(=O)c2ccc(F)cc2F)cc1` [1-[4-(2,4-Difluoro-benzenesulfonyl)-phenyl]-3-oxazol-5-ylmethyl-urea]: the concentration for a half-maximal effect (EC50) (Table B-5) lay within 0.1 to 2 µM. `O=C(NCc1ccncc1)Nc1ccc(S(=O)(=O)c2ccc(F)cc2F)cc1` [1-[4-(2,4-Difluoro-benzenesulfonyl)-phenyl]-3-pyridin-4-ylmethyl-urea]: the EC50 (Table B-6) is 0.1 to 2 µM. `O=C(NCc1cn[nH]c1)Nc1ccc(S(=O)(=O)c2ccccc2Cl)cc1` [1-[4-(2-Chloro-benzenesulfonyl)-phenyl]-3-(1H-pyrazol-4-ylmethyl)-urea] displayed an EC50 (Table B-1) of under 0.1 µM. Regarding `O=C(NCc1cnco1)Nc1ccc(S(=O)(=O)c2ccccc2Cl)cc1` [1-[4-(2-Chloro-benzenesulfonyl)-phenyl]-3-oxazol-5-ylmethyl-urea], the EC50 (Table B-5) is 0.1 to 2 µM. For the compound `COc1ccccc1S(=O)(=O)c1ccc(NC(=O)NCc2cn[nH]c2)cc1` [1-[4-(2-Methoxy-benzenesulfonyl)-phenyl]-3-(1H-pyrazol-4-ylmethyl)-urea], for the setting “Table B-1”, the EC50 was under 0.1 µM. As to `COc1ccccc1S(=O)(=O)c1ccc(NC(=O)NCc2ccncc2)cc1` [1-[4-(2-Methoxy-benzenesulfonyl)-phenyl]-3-pyridin-4-ylmethyl-urea], the EC50 (Table B-2) is under 0.1 µM. As for `O=C(NCc1ccncc1)Nc1ccc(S(=O)(=O)c2ccccc2-c2cccnc2)cc1` [1-[4-(2-Pyridin-3-yl-benzenesulfonyl)-phenyl]-3-pyridin-4-ylmethyl-urea], the EC50 (Table B-6) is 0.1 to 2 µM.
